From patent publication US20080132477A1, “Macrocyclic Compounds Useful as Bace Inhibitors” (priority 2005, published 2008)
Like-named read-outs stand apart in the source and are kept apart here.

Key:
Human BACE = molecular target: T1, Human BACE (Homo sapiens, UniProt P56817); assay: Test 1: Inhibition of Human BACE; format: biochemical; conditions: test not given; follows Tests 1-4, assumed BACE
T1 construct: Recombinant BACE (extracellular domain, expressed in baculovirus and purified using standard methods); made in house
Method: Test 1: Inhibition of Human BACE
Recombinant BACE (extracellular domain, expressed in baculovirus and purified using standard methods) at 6 nM concentration is incubated with the test compound at various concentrations for 1 hour at room temperature in 100 mM acetate buffer, pH 4.5, containing 0.1% CHAPS. Synthetic peptide substrate Mca-Ser-Glu-Val-Asn-Leu-Asp-Ala-Glu-Phe-Lys(DNP) is added to a final concentration of 3 μM and the increase in fluorescence is recorded at excitation of 325 nm and emission at 400 nm in a microplate spectro-fluorimeter for 20 minutes in 1-minute intervals. IC50 values are calculated from percentage of inhibition of BACE-activity as a function of the test compound concentration.

[1] = rcm bond, DCM, 40.0 °C

T1 sequence (P56817 46-457 limits assumed): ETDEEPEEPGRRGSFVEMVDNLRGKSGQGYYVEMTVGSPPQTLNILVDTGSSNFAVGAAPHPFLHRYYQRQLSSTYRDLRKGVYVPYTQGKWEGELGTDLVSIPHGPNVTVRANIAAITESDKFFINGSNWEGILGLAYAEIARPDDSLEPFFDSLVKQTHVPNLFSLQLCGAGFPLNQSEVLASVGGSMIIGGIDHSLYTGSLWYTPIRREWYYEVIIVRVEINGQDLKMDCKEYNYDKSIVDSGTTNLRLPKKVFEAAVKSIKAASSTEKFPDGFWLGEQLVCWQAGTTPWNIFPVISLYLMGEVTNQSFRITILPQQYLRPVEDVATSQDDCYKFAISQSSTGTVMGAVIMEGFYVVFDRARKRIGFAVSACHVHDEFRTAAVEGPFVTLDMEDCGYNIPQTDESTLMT

## Cc1cc2cc(n1)NCCCCc1cccc(c1)C[C@@H]([C@H](O)CNCc1cccc(C(C)C)c1)NC2=O [Example 11, (S)-4-[(R)-1-Hydroxy-2-(3-isopropyl-benzylamino)-ethyl]-18-methyl-3,15,17-triaza-tricyclo[14.3.1.1*6,10*]henicosa-1(19),6,8,10(21),16(20),17-hexaen-2-one]
Human BACE
  IC50: 40 nM

## CN(C)C(=O)c1cc2cc(c1)C(=O)N[C@H]([C@H](O)CCl)Cc1cccc(c1)OCC=CCO2
[1]; from C=CCOc1cccc(C[C@H](NC(=O)c2cc(OCC=C)cc(C(=O)N(C)C)c2)[C@H](O)CCl)c1, Grubbs II, 18.9 mM, 1.5 h
  ring closure, yield of all isomers: 70%

## COc1ccc2cc1CC=CCN(C(C)=O)c1cc(cc(Cl)n1)C(=O)N[C@H]([C@H]1CN(Cc3cccc(C(C)C)c3)C(=O)O1)C2
[1]; from C=CCc1cc(C[C@H](NC(=O)c2cc(Cl)nc(N(CC=C)C(C)=O)c2)[C@H]2CN(Cc3cccc(C(C)C)c3)C(=O)O2)ccc1OC, Grubbs II (tricyclohexylphosphine[1,3-bis(2,4,6-trimethylphenyl)-4,5-dihydroimidazol-2-ylidene][benzylidene]ruthenium(IV) dichloride), 3.45 mM, 6.0 h
  ring closure, yield of all isomers: 77.6%
